Results from patent US20230405028A1 (priority 2020, published 2023).
Where two headings read alike, the source gives them in different places.

Assays:
[1] = test system: Human primary small intestinal epithelial cells (HSIEC); as to cellular metabolic activity: unit not given here
[2] = test system: A-172 glioblastoma cells; assay: MTT cell viability assay in A-172 cells; details: Psilocybin + Eugenol section, 25 μM EUG

For `COc1cc(CNC(=O)CCCC/C=C/C(C)C)ccc1O` [capsaicin], the “effect on cell growth / cellular metabolic activity (MTT, words)” value [1] was “All initial doses of capsaicin were found to be inhibitory”, the “Cellular Metabolic Activity” value ([1]; 0.5 μM, 24 h) was 0.088 and the “Cellular Metabolic Activity” value ([1]; 0.5 μM, 48 h) was 0.154. For the same compound, the “Cellular Metabolic Activity” value ([1]; 0.5 μM, 72 h) was 0.288, the “Cellular Metabolic Activity” value ([1]; 0.5 μM, 96 h) was 0.469 and the “Cellular Metabolic Activity” value ([1]; 0.5 μM, time 0) was 0.068. The “Cellular Metabolic Activity” value ([1]; 1 μM, 24 h) was 0.084, the “Cellular Metabolic Activity” value ([1]; 1 μM, 48 h) was 0.150 and the “Cellular Metabolic Activity” value ([1]; 1 μM, 72 h) was 0.326. The “Cellular Metabolic Activity” value ([1]; 1 μM, 96 h) was 0.502, the “Cellular Metabolic Activity” value ([1]; 1 μM, time 0) was 0.066 and the “Cellular Metabolic Activity” value ([1]; 5 μM, 24 h) was 0.080. The “Cellular Metabolic Activity” value ([1]; 5 μM, 48 h) was 0.148, the “Cellular Metabolic Activity” value ([1]; 5 μM, 72 h) was 0.296 and the “Cellular Metabolic Activity” value ([1]; 5 μM, 96 h) was 0.477. The “Cellular Metabolic Activity” value ([1]; 5 μM, time 0) was 0.068, the “Cellular Metabolic Activity” value ([1]; 10 μM, 24 h) was 0.075 and the “Cellular Metabolic Activity” value ([1]; 10 μM, 48 h) was 0.174. For the same compound, the “Cellular Metabolic Activity” value ([1]; 10 μM, 72 h) was 0.331, the “Cellular Metabolic Activity” value ([1]; 10 μM, 96 h) was 0.708 and the “Cellular Metabolic Activity” value ([1]; 10 μM, time 0) was 0.040. For the same compound, the “Cellular Metabolic Activity” value ([1]; 50 μM, 24 h) was 0.062, the “Cellular Metabolic Activity” value ([1]; 50 μM, 48 h) was 0.155 and the “Cellular Metabolic Activity” value ([1]; 50 μM, 72 h) was 0.292. The “Cellular Metabolic Activity” value ([1]; 50 μM, 96 h) was 0.681, the “Cellular Metabolic Activity” value ([1]; 50 μM, time 0) was 0.036 and the “Cellular Metabolic Activity” value ([1]; 100 μM, 24 h) was 0.063. The “Cellular Metabolic Activity” value ([1]; 100 μM, 48 h) was 0.150, the “Cellular Metabolic Activity” value ([1]; 100 μM, 72 h) was 0.272 and the “Cellular Metabolic Activity” value ([1]; 100 μM, 96 h) was 0.623. For the same compound, the “Cellular Metabolic Activity” value ([1]; 100 μM, time 0) was 0.036, the “Cellular Metabolic Activity” value ([1]; 200 μM, 24 h) was 0.044 and the “Cellular Metabolic Activity” value ([1]; 200 μM, 48 h) was 0.082. The “Cellular Metabolic Activity” value ([1]; 200 μM, 72 h) was 0.144, the “Cellular Metabolic Activity” value ([1]; 200 μM, 96 h) was 0.231 and the “Cellular Metabolic Activity” value ([1]; 200 μM, time 0) was 0.040. For the same compound, the “Cellular Metabolic Activity” value ([1]; 400 μM, 24 h) was 0.016, the “Cellular Metabolic Activity” value ([1]; 400 μM, 48 h) was 0.031 and the “Cellular Metabolic Activity” value ([1]; 400 μM, 72 h) was 0.016. For the same compound, the “Cellular Metabolic Activity” value ([1]; 400 μM, 96 h) was 0.018, the “Cellular Metabolic Activity” value ([1]; 400 μM, time 0) was 0.039 and the “Cellular Metabolic Activity” value ([1]; 800 μM, 24 h) was 0. For the same compound, the “Cellular Metabolic Activity” value ([1]; 800 μM, 48 h) was 0, the “Cellular Metabolic Activity” value ([1]; 800 μM, 72 h) was 0 and the “Cellular Metabolic Activity” value ([1]; 800 μM, 96 h) was 0. For the same compound, the “Cellular Metabolic Activity” value ([1]; 800 μM, time 0) was 0.041 and the “doses showing no effect (MTT)” value ([1]; human) was < 10 µM.
In the case of `C=CCc1ccc(O)c(OC)c1` [EUG], the “Cellular Metabolic Activity” value ([2]; 24 h) was 0.202, the “Cellular Metabolic Activity” value ([2]; 48 h) was 0.297 and the “Cellular Metabolic Activity” value ([2]; 72 h) was 0.473. The “Cellular Metabolic Activity” value ([2]; 96 h) was 0.319 and the “Cellular Metabolic Activity” value ([2]; time 0) was 0.134.
